Assay results: patent publication US20130225578A1, “7-CYCLYLQUINAZOLINE DERIVATIVES AND METHODS OF USE THEREOF” (AMBIT BIOSCIENCES CORPORATION, priority 2010, published 2013)

How the values were obtained:
TYK2 = molecular target: T1, TYK2 (Homo sapiens, UniProt P29597); test: Competition binding assay, TYK2
T1 construct: made in house; host or cells: T7 phage display or HEK-293 cells (alternatives)
Protocol: (§1) Competition binding assays used herein were developed, validated and performed as described in Fabian et al., Nature Biotechnology 2005, 23, 329-336. Kinases were produced as fusions to T7 phage (See, Fabian et al. or WO04/015142) or alternatively, the kinases were expressed in HEK-293 cells and subsequently tagged with DNA for PCR detection (See, WO08/005,310). For the binding assays, streptavidin-coated magnetic beads were treated with biotinylated affinity ligands for […] at rt to generate affinity resins. The liganded beads were blocked with excess biotin and washed with blocking buffer (SeaBlock (Pierce), 1% BSA, 0.05% Tween 20, 1 mM DTT) to remove unbound ligand and to reduce non-specific binding. Binding reactions were assembled by combining kinase, liganded affinity beads, and test compounds in 1× binding buffer (20% SeaBlock, 0.17×PBS, 0.05% Tween 20, 6 mM DTT). Test compounds were prepared as 100× stocks in DMSO and rapidly diluted into the aqueous environment. DMSO was added to control assays lacking a test compound. Primary screen interactions were performed in polypropylene 384-well plates in a final volume of 34 μL, while Kd determinations were performed in polystyrene 96-well plates in a final volume of 135 μL. The assay plates were incubated at room temperature with shaking for 1 hour, long enough for binding reactions to reach equilibrium, and the affinity beads were washed extensively with wash buffer (1×PBS, 0.05% Tween 20) to remove unbound protein. The beads were then resuspended in elution buffer (1×PBS, 0.05% Tween 20, 2 μM non-biotinylated affinity ligand) and incubated at room temperature with shaking for 30 min. The kinase concentration in the eluates was measured by quantitative PCR. Each kinase was tested individually against each compound. Kds were determined using eleven serial threefold dilutions. A selectivity score, which is a quantitative measure of selectivity of a compound against a panel of enzymes, may be calculated for a compound by dividing the number of enzymes for which a compound meets a set criteria, (for example, a binding constant of 100 nM or less), by the total number of enzymes tested.

[1] = test system: distinct kinases tested excluding mutant variants, typically 359 or 386 kinases; test: Kinase panel competition binding, selectivity score; details: compound at 10 μM; fraction of kinases with inhibition of 90% or greater
Protocol: as §1

JAK3 = molecular target: T2, JAK3 (Homo sapiens, UniProt P52333); test: Competition binding assay, JAK3
T2 construct: made in house; host or cells: T7 phage display or HEK-293 cells (alternatives)
T2 sequence (P52333 1-1124): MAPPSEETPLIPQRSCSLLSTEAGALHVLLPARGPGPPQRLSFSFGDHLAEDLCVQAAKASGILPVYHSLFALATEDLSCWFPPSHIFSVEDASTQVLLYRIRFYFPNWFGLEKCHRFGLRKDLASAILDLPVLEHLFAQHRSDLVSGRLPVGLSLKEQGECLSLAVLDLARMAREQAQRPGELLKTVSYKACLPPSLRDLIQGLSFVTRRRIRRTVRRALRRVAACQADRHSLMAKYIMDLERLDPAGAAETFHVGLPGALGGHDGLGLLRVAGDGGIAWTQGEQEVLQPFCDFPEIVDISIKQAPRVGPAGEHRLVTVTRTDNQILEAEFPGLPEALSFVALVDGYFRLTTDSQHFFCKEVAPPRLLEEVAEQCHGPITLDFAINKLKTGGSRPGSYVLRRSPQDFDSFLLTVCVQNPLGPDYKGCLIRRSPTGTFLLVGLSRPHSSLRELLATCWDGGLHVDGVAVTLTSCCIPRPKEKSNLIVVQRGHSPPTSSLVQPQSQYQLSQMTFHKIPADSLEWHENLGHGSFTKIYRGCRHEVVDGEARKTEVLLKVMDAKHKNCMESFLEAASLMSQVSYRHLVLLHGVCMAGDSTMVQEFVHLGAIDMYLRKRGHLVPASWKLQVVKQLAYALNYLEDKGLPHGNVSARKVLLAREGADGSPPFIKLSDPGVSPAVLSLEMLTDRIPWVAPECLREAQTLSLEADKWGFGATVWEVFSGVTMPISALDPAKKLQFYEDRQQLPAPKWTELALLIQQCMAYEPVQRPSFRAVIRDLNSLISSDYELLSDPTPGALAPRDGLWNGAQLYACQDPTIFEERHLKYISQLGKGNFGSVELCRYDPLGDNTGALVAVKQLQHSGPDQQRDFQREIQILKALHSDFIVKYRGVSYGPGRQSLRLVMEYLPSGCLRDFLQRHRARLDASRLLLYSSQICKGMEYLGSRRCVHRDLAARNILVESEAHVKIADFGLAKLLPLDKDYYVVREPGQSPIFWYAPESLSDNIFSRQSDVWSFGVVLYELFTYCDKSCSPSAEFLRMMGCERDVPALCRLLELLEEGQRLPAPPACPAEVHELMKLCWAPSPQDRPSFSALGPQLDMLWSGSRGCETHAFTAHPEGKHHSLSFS
Protocol: as §1

JAK2 = molecular target: T3, JAK2 (Homo sapiens, UniProt O60674); test: Competition binding assay, JAK2
T3 construct: made in house; host or cells: T7 phage display or HEK-293 cells (alternatives)
Protocol: as §1

[2] = test system: GM-CSFR/JAK2/STAT5 pathway; test: CSTF-1 cell-based reporter assay (beta-lactamase reporter, GM-CSF stimulated); details: Homo sapiens; csTF-1 cells, GM-CSF 2 ng/mL, 4 hours; read-out: Cell Assay: CS TF-1 reporter assay IC50
Protocol: CSTF-1 cells are derived from the human erythroleukemia cell line that is growth dependent on GM-CSF and has an intact GM-CSFR/JAK2/STAT5 pathway. The cell line contains stably integrated beta-lactamase reporter gene under the control of the […] (irf 1) response element recognized by the activated transcription factor STAT5. csTF-1 cells (Invitrogen K1219) were washed with assay media (97% OPTIMEM/0.5% dialyzed FBS/0.1 mM NEAA/1 mM Na pyr/P/S) and seeded in the same media at 5×10^5 cell/mL in T150 flask. After 16 hour incubation, cells were seeded at 2×10^5 cell/well in 50 jtl volume, into Costar, clear bottom, 96-well assay plates. Serial dilutions of compounds were added to the plates with final DMSO concentration at 0.5% and GM-CSF at 2 ng/mL and the plates were then incubated at 30° C. and 5% CO2 for 4 hours. The plates were brought to room temperature before adding Substrate Mixture according to manufacturer's protocol (Invitrogen, Catalog #K1085). The assay plates containing the substrate mixture were incubated in the dark at room temperature for 2 hours. Blue and green fluorescence was measured with excitation at 409 nm and emission at 460 nm (for blue) and excitation at 409 nm and emission at 530 nm (for green) using Spectra Max Gemini EM.

T3 sequence (O60674 whole entry): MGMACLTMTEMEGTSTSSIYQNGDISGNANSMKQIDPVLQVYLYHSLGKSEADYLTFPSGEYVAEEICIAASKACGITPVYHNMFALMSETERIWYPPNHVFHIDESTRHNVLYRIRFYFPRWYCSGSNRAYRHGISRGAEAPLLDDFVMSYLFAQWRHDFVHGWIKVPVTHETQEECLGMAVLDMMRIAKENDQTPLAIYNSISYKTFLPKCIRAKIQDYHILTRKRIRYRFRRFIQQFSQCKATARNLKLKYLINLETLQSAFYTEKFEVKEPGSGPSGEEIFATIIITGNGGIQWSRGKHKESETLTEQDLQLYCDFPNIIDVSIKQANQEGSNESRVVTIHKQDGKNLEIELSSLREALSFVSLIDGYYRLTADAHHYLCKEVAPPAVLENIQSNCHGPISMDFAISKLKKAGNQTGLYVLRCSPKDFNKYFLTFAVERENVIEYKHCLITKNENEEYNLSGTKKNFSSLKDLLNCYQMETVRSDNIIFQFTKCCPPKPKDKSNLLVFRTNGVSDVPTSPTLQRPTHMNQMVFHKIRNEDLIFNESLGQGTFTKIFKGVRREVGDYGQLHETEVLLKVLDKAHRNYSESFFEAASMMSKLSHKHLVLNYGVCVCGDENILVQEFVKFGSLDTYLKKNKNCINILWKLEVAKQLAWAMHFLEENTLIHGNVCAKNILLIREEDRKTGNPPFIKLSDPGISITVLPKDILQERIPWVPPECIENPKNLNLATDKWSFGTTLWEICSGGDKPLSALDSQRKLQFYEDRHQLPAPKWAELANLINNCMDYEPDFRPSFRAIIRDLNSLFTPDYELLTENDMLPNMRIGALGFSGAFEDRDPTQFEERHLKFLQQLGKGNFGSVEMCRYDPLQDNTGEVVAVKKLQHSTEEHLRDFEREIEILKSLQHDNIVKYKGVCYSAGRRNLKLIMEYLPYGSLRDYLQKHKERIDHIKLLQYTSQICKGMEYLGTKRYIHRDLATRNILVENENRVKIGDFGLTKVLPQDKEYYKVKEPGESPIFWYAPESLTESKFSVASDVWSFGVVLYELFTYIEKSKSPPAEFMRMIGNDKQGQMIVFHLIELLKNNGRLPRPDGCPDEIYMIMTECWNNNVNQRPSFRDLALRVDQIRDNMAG
T1 sequence (P29597 whole entry): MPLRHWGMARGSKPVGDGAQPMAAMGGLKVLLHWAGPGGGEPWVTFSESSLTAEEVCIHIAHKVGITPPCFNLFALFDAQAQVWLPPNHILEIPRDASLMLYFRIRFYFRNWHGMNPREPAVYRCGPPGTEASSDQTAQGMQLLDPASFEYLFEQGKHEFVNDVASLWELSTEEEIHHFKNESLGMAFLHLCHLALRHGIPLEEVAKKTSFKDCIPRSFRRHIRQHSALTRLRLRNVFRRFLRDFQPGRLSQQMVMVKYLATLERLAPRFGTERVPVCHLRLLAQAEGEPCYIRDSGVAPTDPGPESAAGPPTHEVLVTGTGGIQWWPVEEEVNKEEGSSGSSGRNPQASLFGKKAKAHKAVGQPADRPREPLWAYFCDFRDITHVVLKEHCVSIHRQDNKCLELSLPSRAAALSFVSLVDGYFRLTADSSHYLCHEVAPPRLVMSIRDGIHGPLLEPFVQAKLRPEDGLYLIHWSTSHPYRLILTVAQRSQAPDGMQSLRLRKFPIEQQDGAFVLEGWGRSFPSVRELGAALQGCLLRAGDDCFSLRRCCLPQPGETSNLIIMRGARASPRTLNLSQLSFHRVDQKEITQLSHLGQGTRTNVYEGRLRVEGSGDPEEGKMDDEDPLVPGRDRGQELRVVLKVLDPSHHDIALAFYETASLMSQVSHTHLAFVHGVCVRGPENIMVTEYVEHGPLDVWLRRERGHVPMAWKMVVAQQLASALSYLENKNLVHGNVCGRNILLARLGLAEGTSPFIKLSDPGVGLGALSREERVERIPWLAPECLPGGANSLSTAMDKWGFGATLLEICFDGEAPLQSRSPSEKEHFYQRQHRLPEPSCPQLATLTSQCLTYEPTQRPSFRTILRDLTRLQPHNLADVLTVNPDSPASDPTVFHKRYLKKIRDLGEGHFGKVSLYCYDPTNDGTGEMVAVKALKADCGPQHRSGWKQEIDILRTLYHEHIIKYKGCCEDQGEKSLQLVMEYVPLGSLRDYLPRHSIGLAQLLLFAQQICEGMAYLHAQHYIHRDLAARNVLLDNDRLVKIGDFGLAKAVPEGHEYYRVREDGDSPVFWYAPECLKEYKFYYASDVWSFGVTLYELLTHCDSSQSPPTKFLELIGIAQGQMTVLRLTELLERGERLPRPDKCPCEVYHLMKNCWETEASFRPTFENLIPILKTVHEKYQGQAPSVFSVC

| SMILES | Kd (TYK2) | S-Score: S(10) at 10 μM [1] | Kd (JAK3) | Kd (JAK2) | IC50 [2] |
| --- | --- | --- | --- | --- | --- |
| Cc1cc(Nc2nc(C(F)(F)c3ccc(F)cc3)nc3cc(-c4cnn(C)c4)ccc23)n[nH]1 [Example 1, 2-(difluoro(4-fluorophenyl)methyl)-N-(5-methyl-1H-pyrazol-3-yl)-7-(1-methyl-1H-pyrazol-4-yl)quinazolin-4-amine] | ≤ 10 nM | A (A≦0.3) | ≤ 10 nM | ≤ 1 nM | ≤ 100 nM |
| Cc1cc(Nc2nc(C(F)(F)c3ccc(F)cc3)nc3cc(-c4cncnc4)ccc23)n[nH]1 [Example 2, 2-(difluoro(4-fluorophenyl)methyl)-N-(5-methyl-1H-pyrazol-3-yl)-7-(pyrimidin-5-yl)quinazolin-4-amine] | ≤ 10 nM | A (A≦0.3) | ≤ 10 nM | ≤ 1 nM | ≤ 100 nM |
| Cc1cc(Nc2nc(C(F)(F)c3ccc(F)cc3)nc3cc(C4(O)COC4)ccc23)n[nH]1 [Example 3, 3-(2-(difluoro(4-fluorophenyl)methyl)-4-(5-methyl-1H-pyrazol-3-ylamino)quinazolin-7-yl)oxetan-3-ol] | ≤ 10 nM | D (D>0.5) | ≤ 10 nM | ≤ 1 nM | ≤ 100 nM |
| Cc1cc(Nc2nc(C(F)(F)c3ccc(F)cc3)nc3cc(C4=CCOCC4)ccc23)n[nH]1 [Example 4, 2-(difluoro(4-fluorophenyl)methyl)-7-(3,6-dihydro-2H-pyran-4-yl)-N-(5-methyl-1H-pyrazol-3-yl)quinazolin-4-amine] | ≤ 10 nM | A (A≦0.3) | ≤ 10 nM | 1 to 10 nM | 100 to 500 nM |
| Cc1cc(Nc2nc(C(F)(F)c3ccc(F)cc3)nc3cc(-c4ccccc4O)ccc23)n[nH]1 [Example 5, 2-(2-(difluoro(4-fluorophenyl)methyl)-4-(5-methyl-1H-pyrazol-3-ylamino)quinazolin-7-yl)phenol] | 10 to 100 nM | A (A≦0.3) | 10 to 100 nM | 1 to 10 nM | 100 to 500 nM |
| Cc1cc(Nc2nc(C(F)(F)c3ccc(F)cc3)nc3cc(-c4c(C)noc4C)ccc23)n[nH]1 [Example 6, 2-(difluoro(4-fluorophenyl)methyl)-7-(3,5-dimethylisoxazol-4-yl)-N-(5-methyl-1H-pyrazol-3-yl)quinazolin-4-amine] | ≤ 10 nM | B (0.3≦B≦0.4) | ≤ 10 nM | 1 to 10 nM | 100 to 500 nM |
| Cc1cc(Nc2nc(C(F)(F)c3ccc(F)cc3)nc3cc(N4C[C@H](O)CC4=O)ccc23)n[nH]1 [Example 7, (R)-1-(2-(difluoro(4-fluorophenyl)methyl)-4-(5-methyl-1H-pyrazol-3-ylamino)quinazolin-7-yl)-4-hydroxypyrrolidin-2-one] | ≤ 10 nM | D (D>0.5) | ≤ 10 nM | ≤ 1 nM | 100 to 500 nM |
| Cc1cc(Nc2nc(C(F)(F)c3ccc(F)cc3)nc3cc(CN4CCOCC4)ccc23)n[nH]1 [Example 8, 2-(difluoro(4-fluorophenyl)methyl)-N-(5-methyl-1H-pyrazol-3-yl)-7-(morpholinomethyl)quinazolin-4-amine] | ≤ 10 nM | D (D>0.5) | ≤ 10 nM | ≤ 1 nM | ≤ 100 nM |
